Like-named read-outs stand apart in the source and are kept apart here.
System: E. multilocularis metacestodes
Assay: PGI-assay: drug-induced damage on in vitro cultured metacestodes (Pathogen Box screening cascade and EC50)
Assay type: cell-based, Echinococcus multilocularis
Conditions: for PGI release, % of the Tx-100 control, 5d / PGI release, % of the Tx-100 control, 12d: 10 µM, singlets; for PGI release, % of the Tx-100 control, 5d / PGI release, % of Tx-100 control, average, 5d: 5 days of incubation; for PGI release, % of the Tx-100 control, 12d / PGI release, % of Tx-100 control, average, 12d: 12 days of incubation; for cytotoxicity at 10 µM: Echinococcus multilocularis
[1] = confirmatory screening at 10 µM in triplicates, values as % of Tx-100 control

| SMILES | PGI release, % of the Tx-100 control, 5d | PGI release, % of the Tx-100 control, 12d | further results |
| --- | --- | --- | --- |
| Cc1ccc2nc(C)c(-c3ccn(Cc4ccccc4)n3)n2c1 [MMV688939] | 15.20% | 102.25% | PGI release, % of Tx-100 control, average, 5d [1]: 3.21%; PGI release, % of Tx-100 control, average, 12d [1]: 3.18% |
| NCCN(C(=O)c1ccc(Cl)cc1Cl)c1ccc(OCc2ccc(Cl)cc2)cc1 [MMV688371] | 45.68% | 52.47% | PGI release, % of Tx-100 control, average, 5d [1]: 3.16%; PGI release, % of Tx-100 control, average, 12d [1]: 3.77% |
| CCc1nc2ccc(C(=O)NCc3ccc4c(c3)OCO4)cn2c1N(C)Cc1cccs1 [MMV407539] | -0.20% | 24.66% | PGI release, % of Tx-100 control, average, 5d [1]: -1.01%; PGI release, % of Tx-100 control, average, 12d [1]: 3.14% |
| CC(=O)N1CCc2cc3nc(C)cc(C)c3cc21 [MMV054312] | 0.77% | -0.65% | – |
| CCn1ncc2c(NC3CCOCC3)c(CNC(=O)c3ccnn3C)c(C)nc21 [MMV026356] | -0.13% | 0.36% | – |
| CN1CCN(c2nccc3[nH]c(-c4cccc(F)c4)cc23)CC1 [MMV393144] | -0.30% | 0.40% | – |
| Clc1ccc(CN2CCN(C3=NCCN3)CC2)cc1Cl [MMV689060] | 0.33% | -1.23% | – |
| O=C(Nc1ccccc1)c1ccc(-c2cc3ccncc3cc2OC2CCNCC2)s1 [MMV024035] | 1.01% | 1.04% | – |
| CS(=O)(=O)N1CCC(CCn2nc(Cc3cccc4ccccc34)c3c(N)ncnc32)CC1 [MMV688470] | 1.33% | 2.31% | – |
| c1ccc(Oc2ccc(-c3cc(N4CCOCC4)n[nH]3)cc2)cc1 [MMV045105] | -0.42% | 0.07% | – |
| CNC(=O)C1Cc2ccccc2N1C(=O)Cc1ccc(F)cc1 (centres unmarked) [MMV188296] | -0.45% | -0.28% | – |
| COc1ccc(Cn2cnc3c(-c4ccco4)nc(Cl)nc32)cc1 [MMV687170] | 0.26% | -3.06% | – |
| CCCn1c(NC(=O)c2ccc3ccccc3n2)nc2ccccc21 [MMV1030799] | 3.64% | 13.68% | – |
| Nc1ncnc2c1c(Cc1cccc3ccccc13)nn2CC1CCNCC1 [MMV676182] | 0.88% | -0.92% | – |
| CCOc1ccccc1C(=O)Nc1cccc(-c2nc3ncccn3c2C)c1 [MMV019790] | -1.05% | 53.36% | PGI release, % of Tx-100 control, average, 5d [1]: -1.68%; PGI release, % of Tx-100 control, average, 12d [1]: -2.24% |
| Nc1ncnc2c1c(-c1cnc3ccccc3c1)nn2CC1CCNCC1 [MMV688411] | -0.63% | -1.19% | – |
| Cc1cc(Nc2ccc(C(F)(F)F)cc2)n2ccnc2n1 [MMV011229] | -0.86% | -1.35% | – |
| CN(C)CCNC(=O)N1CCCN(c2ncnc3cc(-c4ccccc4)sc23)CC1 [MMV024195] | 1.72% | 5.34% | – |
| CC(C)(C)n1nc(Cc2cccc3ccccc23)c2c(N)ncnc21 [MMV676599] | -0.93% | -0.99% | – |
| CC(C)n1ncc2c(C(=O)NCC(c3cccs3)N3CCOCC3)cc(-c3ccccc3)nc21 (centres unmarked) [MMV676406] | 0.95% | 2.38% | – |
| COc1ccc(C2(C(=O)Nc3ccc(Br)cc3)CCCC2)cc1 [MMV200748] | -1.03% | -1.33% | – |
| COC(=O)c1c(NC(=O)c2c(F)c(F)c(F)c(F)c2F)sc2c1CCCCC2 [MMV461553] | 3.92% | 19.16% | – |
| CCc1nn(C)c(C(=O)NCc2ccc(Oc3ccc(C)cc3)cc2)c1Cl [MMV688934, Tolfenpyrad] | – | – | cytotoxicity at 10 µM (120 h, read-out: PGI release, % of the Tx-100 control, 5d): -1.16%; cytotoxicity at 10 µM (288 h, read-out: PGI release, % of the Tx-100 control, 12d): 10.3% |

| SMILES | PGI release, % of the Tx-100 control, 5d | PGI release, % of the Tx-100 control, 12d | further results |
| --- | --- | --- | --- |
| Cc1cccc(NC(=O)c2cc(S(=O)(=O)N(C)c3ccc(F)cc3)ccc2Cl)n1 [MMV676528] | -0.45% | 0.71% | – |
| COc1ccc(-c2cnc3ccc(N4CCCC4)nn23)cc1OC [MMV023985] | -0.66% | -1.01% | – |
| NC(=O)c1cc(Br)ccc1OCCOc1ccccc1 [MMV687243] | 1.02% | -1.47% | – |
| CN(C)c1cc(NC(=O)Nc2ccccc2)c2ccccc2n1 [MMV006901] | 13.97% | 19.56% | – |
| NS(=O)(=O)c1cccc(-c2ccc3ncc(N4CCOCC4)nc3c2)c1 [MMV023860] | -0.05% | -0.27% | – |
| Cc1cc(C(=O)Nc2ccc(-c3ccccc3)cc2)no1 [MMV020152] | 0.07% | -0.81% | – |
| Cc1nnc(NC(=O)c2cn(-c3ccccc3)nc2-c2ccccc2C)o1 [MMV020320] | -1.15% | 2.11% | – |
| COCC(C)NC(=O)CSc1ncnc2sc(-c3ccccc3)cc12 (centres unmarked) [MMV676536] | 3.74% | 50.91% | PGI release, % of Tx-100 control, average, 5d [1]: 0.53%; PGI release, % of Tx-100 control, average, 12d [1]: 0.42% |
| CC(C)C(Oc1cccc2ccccc12)C(=O)O (centres unmarked) [MMV676191] | -0.44% | -4.34% | – |
| CC(=O)N(CCN(C(=O)c1ccc(F)cc1)c1ccccc1)c1ccccc1 [MMV676064] | -0.20% | 0.0545% | – |
| CCOc1ccc(OCC(=O)Nc2cc(C)cc(C)c2)cc1 [MMV676470] | -0.69% | -0.73% | – |
| N=C(N)Nc1ccc(-c2ccc(-c3ccc(N=C(N)N)c(Cl)c3)o2)cc1Cl [MMV688271] | 9.82% | 13.94% | – |
| NS(=O)(=O)c1cncc(-c2ccc3nccc(-c4cn[nH]c4)c3n2)c1 [MMV024101] | 0.37% | 1.27% | – |
| Cc1cc(C(=O)Nc2cnn(Cc3ccc(Cl)cc3Cl)c2)no1 [MMV009054] | -0.80% | -0.25% | – |
| Cc1ccc(NC(=O)c2nc[nH]c2C(=O)Nc2nc3ccccc3[nH]2)c(C)c1 [MMV011903] | 41.66% | 94.00% | PGI release, % of Tx-100 control, average, 5d (1 µM, triplicates): -2.96%; PGI release, % of Tx-100 control, average, 12d (1 µM, triplicates): -9.52%; activity in the screen at 10 μM (confirmed in triplicates, >20% relative PGI release) (10 μM, 5 and 12 days): active; PGI release, % of Tx-100 control, average, 5d [1]: 4.49%; PGI release, % of Tx-100 control, average, 12d [1]: 34.00% |
| Cc1nc(-c2ccccn2)nc(N(C)CCc2ccccc2)c1Cl [MMV658988] | 22.86% | 30.08% | PGI release, % of Tx-100 control, average, 5d [1]: 4.97%; PGI release, % of Tx-100 control, average, 12d [1]: 10.18% |
| Cc1cc(Cl)c(S(=O)(=O)N2CCCC2)cc1OCC(=O)NC1CCCCC1 [MMV006833] | 0.0374% | -0.28% | – |
| COc1ccc(-c2nn(C(C)C)c3ncnc(N)c23)cc1OC [MMV675993] | -5.16% | -3.42% | – |
| O=C(C1CCN(c2nnc(-n3cccc3)s2)CC1)N1CCC(Cc2ccccc2)CC1 [MMV676478] | -4.04% | 0.80% | – |
| FC(F)(F)c1nnc2ccc(Cl)nn12 [MMV069458] | -0.54% | 0.02% | – |
| CC(=O)Nc1ccc(-c2noc(CC3CCCN(Cc4cccc(F)c4C)C3)n2)cc1 (centres unmarked) [MMV689061] | 2.22% | 1.98% | – |
| c1ccc(-c2[nH]c3ccccc3c2C(c2ccccn2)N2CCCC2)cc1 (centres unmarked) [MMV688762] | 0.82% | 0.77% | – |

— paper PMC6216040, “Repurposing of an old drug: In vitro and in vivo efficacies of buparvaquone against Echinococcus multilocularis” (International Journal for Parasitology: Drugs and Drug …, 2018)
